Data set [1] has as its target T1, NMDAR2A (Homo sapiens, UniProt Q12879).
T1 construct: expressed in transfected cells; host or cells: HEK cells (membrane extract)
The experiment in a line: [3H]MK-801 binding in NMDAR expressing HEK cell membranes (facilitation of NMDAR activation). Type of data set: biochemical. To be noted: 50 μM glutamate; for EC50: read-out: B: log EC50 (converted); for Emax: 0.25 h, read-out: A: % maximal [3H]MK-801 binding relative to 1 mM glycine. The procedure: (§1) Assays were conducted as described by Moskal et al., “GLYX-13: a monoclonal antibody-derived peptide that acts as an N-methyl-D-aspartate receptor modulator,” Neuropharmacology, 49, 1077-87, 2005. These studies were designed to determine if the test compounds act to facilitate NMDAR activation in NMDAR2A, NMDAR2B, NMDAR2C or NMDAR2D expressing HEK cell membranes as measured by increases in [^3H]MK-801 binding.
(§2) In the assay, 300 μg of NMDAR expressing HEK cell membrane extract protein was preincubated for 15 minutes at 25° C. in the presence of saturating concentrations of glutamate (50 μM) and varying concentrations of test compound (1×10^15M−1×10^−7M), or 1 mM glycine. Following the addition of 0.3 μCi of [^3H]MK-801 (22.5 Ci/mmol), reactions were again incubated for 15 minutes at 25° C. (nonequilibrium conditions). Bound and free [^3H]MK-801 were separated via rapid filtration using a Brandel apparatus.
(§3) In analyzing the data, the DPM (disintegrations per minute) of [^3H]MK-801 remaining on the filter were measured for each concentration of test compound or for 1 mM glycine. The DPM values for each concentration of a ligand (N=2) were averaged. The baseline value was determined from the best fit curve of the DPM values modeled using the GraphPad program and the log(agonist) vs. response (three parameters) algorithm was then subtracted from all points in the dataset. The % maximal [^3H]MK-801 binding was then calculated relative to that of 1 mM glycine: all baseline subtracted DPM values were divided by the average value for 1 mM glycine. The EC50 and % maximal activity were then obtained from the best fit curve of the % maximal [^3H]MK-801 binding data modelled using the GraphPad program and the log(agonist) vs. response (three parameters) algorithm.
(§4) The tables below summarize the results for the wild type NMDAR agonists NMDAR2A, NMDAR2B, NMDAR2C, and NMDAR2D, and whether the compound is not an agonist (−), is an agonist (+), or is a strong agonist (++), where column A is based on the % maximal [^3H]MK-801 binding relative to 1 mM glycine (−=0; <100%=+; and >100%=++); and column B is based on log EC50 values (0=−; ≥1×10^−9 M (e.g., −8)=+; and <1×10^−9 M (e.g., −10)=++).

Data set [2] addresses T2, NMDAR2B (Homo sapiens, UniProt Q13224).
T2 construct: expressed in transfected cells; host or cells: HEK cells (membrane extract)
The data set is described as above. To be noted: 50 μM glutamate; for EC50: read-out: B: log EC50 (converted); for Emax: 0.25 h, read-out: A: % maximal [3H]MK-801 binding relative to 1 mM glycine. Format: biochemical. The procedure:
as §1, §2, §3, §4

The nature of data set [3]: IV pharmacokinetics. Format: in vivo, Sprague Dawley rats. To be noted: rat, normal saline (* in 5% NMP, 5% Solutol HS, 90% normal saline); for AUC(0-t) / half-life / C0 / Vd: Sprague-Dawley, in vivo, iv, 2 mg/kg; for C0: read-out: C0; for Vd: read-out: Vss; for CI: intravenous 2 mg/kg. The source says: The table below summarizes the results of the IV pharmacokinetics.

The nature of data set [4]: oral pharmacokinetics (plasma, brain, CSF). Type of data set: in vivo, Sprague Dawley rats. The following applies: rat, per os 10 mg/kg; for AUC(0-t) / bioavailability / Tmax / Cmax: Sprague-Dawley, plasma, po, 10 mg/kg; for Tmax: normal saline (* in 5% NMP, 5% Solutol HS, 90% normal saline), read-out: Tmax; for Cmax: read-out: Cmax.
Procedure: In another experiment, Sprague Dawley rats were dosed per os using a normal saline formulation containing 10 mg/kg of the compounds identified in the table below (except for the compounds marked with an asterisk (“*”) that were delivered in 5% NMP, 5% Solutol® HS and 90% normal saline formulation). Plasma, brain, and CSF samples were analyzed at various time points over a 24 hour period.
Data set [5] deals with Sprague Dawley rats. The experiment in a line: Porsolt forced swim test. Type of data set: in vivo, rat. Also noted: key to Significance vs. vehicle: Yes: statistically significant (p<=0.05) from vehicle at dose level shown; No: not statistically significant from vehicle. The procedure:
A non-clinical in vivo pharmacology study (Porsolt assay) was performed to measure antidepressant-like effects. A negative control (0.5% sodium carboxymethyl cellulose in 0.9% sterile saline vehicle) and a positive control (fluoxetine) are shown for comparison against test compound. The study allowed for the evaluation of the effects of each compound on the Porsolt forced swim test as assessed by the rats' response (reduced floating time) during a 5-minute swimming test.
Male 2-3 month old Sprague Dawley rats were used (Harlan, Indianapolis, Ind.). Rats were housed in Lucite cages with aspen wood chip bedding, maintained on a 12:12 light:dark cycle (lights on at 5 AM), and given ad libitum access to Purina lab chow (USA) and tap water throughout the study.
The Porsolt forced swim test adapted for use in rats was performed as described by Burgdorf et al., (The long-lasting antidepressant effects of rapastinel (GLYX-13) are associated with a metaplasticity process in the medial prefrontal cortex and hippocampus. Neuroscience 308:202-211, 2015). Animals were placed in a 46 cm tall×20 cm in diameter clear glass tube filled to 30 cm with tap water (23±1° C.) for 15 min on the first day (habituation) and 5 min on the subsequent test day. Positive control fluoxetine was dosed 3 times (24 h, 5 h and 1 h) prior to testing. Animals were tested 1 h or 24 h post-dosing with the test compounds or vehicle. Animals received a 15 min habituation session 1 day before the 5 min test. A subset of compounds tested at 1 h post-dosing were retested at 1 wk post-dosing in the same sets of animals. Water was changed after every other animal. Animals were videotaped, and floating time as defined as the minimal amount of effort required to keep the animals head above water was scored offline by a blinded experimenter with high inter-rater reliability (Pearson's r>0.9).
Each compound tested at dose level shown. Significance vs. vehicle group for each experiment is marked. […] A compound marked “No” was not statistically significant from vehicle. Data was averaged for test compound and vehicle groups (N approximately 8 per group) and the percent reduction in floating for group treated with test compound relative to group treated with vehicle is shown.

Data set [6] deals with Sprague Dawley rats. The data set is described as follows: Bennett model of mechanical analgesia (sciatic nerve chronic constriction, paw withdrawal threshold).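 Note: log paw withdrawal threshold scaled from vehicle group mean (0%) to naive 15 g value (100%).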 To be noted: 150 mg/kg PO, example gabapentin control value. Type of data set: in vivo, rat. As for the experimental part:
The Bennett model of mechanical analgesia is used to assess the analgesic effects of compounds as measured by paw withdrawal threshold. Bennett GJ, Xie YK, “A peripheral mononeuropathy in rat that produces disorders of pain sensation like those seen in man,” Pain 33:87-107, 1988. […] Vehicle animals receive the surgery and then receive vehicle rather than test compound. Animals were tested 1 hr, 24 h and 1 wk post-test compound or vehicle administration.
Male 2-3 month old Sprague Dawley rats were used. Harlan was the supplier for all studies. Rats were housed in Lucite cages with aspen wood chip bedding, maintained on a 12:12 light:dark cycle (lights on at 5 AM), and given ad libitum access to Purina lab chow (USA) and tap water throughout the study.
Rats were anesthetized using inhaled isoflurane (2.5%). Sciatic nerve chronic constriction nerve injury surgery was performed as previously described (Bennett and Xie, 1988). An incision (˜1.5 cm in length) was made with a scalpel blade dorsally through skin on the right hind limb, parallel and posterior to femur. Using a small pointed hemostat, the biceps femoris and gluteus superficialis muscles were separated. Using curved blunt forceps, the common sciatic nerve was isolated and exposed. For the mechanical analgesia studies, the whole sciatic nerve was ligated. Using hemostats/forceps and chromic gut (5-0), the nerve was loosely ligated with a square knot; 3 ligatures, 1 mm apart were placed on the nerve. […] Testing occurred approximately 2 weeks post-surgery.
During testing, rats were acclimated to the surface of a suspended wire mesh grid (1 cm×1 cm, with the wire being 0.3 cm in diameter) for 15-20 min. Starting from the smallest, each Von Frey filament was pressed perpendicularly to the plantar surface of the affected (ipsilateral) hind paw until slightly bent and then held for 6 second. If an obvious hind paw withdrawal or a flinching behavior immediately after the withdrawal of the filament was not observed, the next larger filament was used in the same manner. In case of a response, a lower filament was used. This was repeated until six responses were collected.
For all studies, animals were baselined prior to study start to test for allodynia (defined as a paw withdrawal threshold under 5). A subset of animals was tested with gabapentin (150 mg/kg, PO) to ensure at least 50% analgesia. Once it was confirmed animals were ready for study initiation, animals were balanced across groups. All study investigators were blind to treatment conditions. Animals were dosed with 0.1, 1 or 10 mg/kg of test compound via oral gavage (PO), control sets of animals were dosed with gabapentin (150 mg/kg, PO) or vehicle (0.5% Na-CMC in 0.9% sterile saline, PO). Testing occurred 1 h post-dosing with animals retested 24 hrs and 1 week post-dosing. The percent analgesia calculations for each animal were made using the following equation: % analgesia=[(log(x)−y)/((log (z)−y)]*100, where x=the paw withdrawal threshold for the drug-treated animal in grams, y=the average of the log(x) values for the vehicle treated group, and z=the paw withdrawal threshold for naïve animals in grams (historical value of 15 used).
The results are shown in the table below where the percentage of analgesia is measured at 1 hour, 24 hours, and 1 week after compound administration. Since each study had its own gabapentin control group, an example gabapentin control value is shown.

The mark [7] stands for this setting: 20 mg/kg, dosed 3 times (24 h, 5 h and 1 h) prior to testing, 1 h post-dose.

The term EC50 denotes the midpoint of the concentration-response curve. One may read the AUC(0-t) as exposure summed from dosing to a finite time, without extrapolation to infinity. Usually half-life stands for the time in which the quantity being followed falls by half. In general, bioavailability refers to the share of a dose that reaches the circulation, judged against a reference dose that is usually intravenous. As usually defined, the Tmax is the time at which the peak concentration occurs. The Cmax is the maximum level reached in the sampled fluid or tissue.

T1 sequence (Q12879 23-1464, species assumed, other chains not shown): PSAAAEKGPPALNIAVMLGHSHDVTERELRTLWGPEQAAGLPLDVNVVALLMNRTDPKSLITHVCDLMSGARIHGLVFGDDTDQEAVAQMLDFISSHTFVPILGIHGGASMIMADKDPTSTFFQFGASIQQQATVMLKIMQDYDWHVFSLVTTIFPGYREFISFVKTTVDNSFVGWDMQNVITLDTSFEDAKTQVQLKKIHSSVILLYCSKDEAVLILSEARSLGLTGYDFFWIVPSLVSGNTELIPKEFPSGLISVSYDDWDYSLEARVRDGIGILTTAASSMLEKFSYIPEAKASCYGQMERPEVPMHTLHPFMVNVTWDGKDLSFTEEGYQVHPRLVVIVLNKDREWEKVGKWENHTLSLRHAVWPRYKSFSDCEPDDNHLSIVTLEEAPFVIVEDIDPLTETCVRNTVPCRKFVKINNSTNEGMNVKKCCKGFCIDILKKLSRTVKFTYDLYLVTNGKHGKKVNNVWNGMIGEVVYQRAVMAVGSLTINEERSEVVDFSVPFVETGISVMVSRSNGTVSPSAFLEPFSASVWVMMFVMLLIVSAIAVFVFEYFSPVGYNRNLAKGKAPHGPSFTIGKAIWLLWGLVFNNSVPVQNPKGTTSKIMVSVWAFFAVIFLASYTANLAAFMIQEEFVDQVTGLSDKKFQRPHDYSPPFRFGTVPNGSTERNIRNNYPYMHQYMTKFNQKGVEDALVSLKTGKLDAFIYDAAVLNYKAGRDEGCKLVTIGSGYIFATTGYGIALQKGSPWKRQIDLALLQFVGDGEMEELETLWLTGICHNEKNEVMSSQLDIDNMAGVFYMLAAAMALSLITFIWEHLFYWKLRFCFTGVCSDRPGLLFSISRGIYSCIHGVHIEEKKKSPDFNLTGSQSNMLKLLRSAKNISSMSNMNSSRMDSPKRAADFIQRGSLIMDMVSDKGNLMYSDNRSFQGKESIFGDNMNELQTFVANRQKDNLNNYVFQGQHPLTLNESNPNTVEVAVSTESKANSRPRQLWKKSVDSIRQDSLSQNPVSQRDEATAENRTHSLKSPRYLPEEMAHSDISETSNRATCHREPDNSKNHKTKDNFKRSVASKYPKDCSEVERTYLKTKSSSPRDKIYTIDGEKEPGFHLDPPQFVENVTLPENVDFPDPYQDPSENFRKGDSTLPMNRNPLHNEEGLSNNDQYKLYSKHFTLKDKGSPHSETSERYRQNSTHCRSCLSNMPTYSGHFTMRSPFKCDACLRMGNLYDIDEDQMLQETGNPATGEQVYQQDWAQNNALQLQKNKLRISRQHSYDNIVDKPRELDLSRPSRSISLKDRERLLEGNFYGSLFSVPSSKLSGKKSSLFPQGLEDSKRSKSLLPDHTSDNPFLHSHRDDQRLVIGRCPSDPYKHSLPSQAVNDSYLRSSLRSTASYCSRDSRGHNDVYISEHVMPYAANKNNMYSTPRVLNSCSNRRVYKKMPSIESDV
T2 sequence (Q13224 27-1484, species assumed, other chains not shown): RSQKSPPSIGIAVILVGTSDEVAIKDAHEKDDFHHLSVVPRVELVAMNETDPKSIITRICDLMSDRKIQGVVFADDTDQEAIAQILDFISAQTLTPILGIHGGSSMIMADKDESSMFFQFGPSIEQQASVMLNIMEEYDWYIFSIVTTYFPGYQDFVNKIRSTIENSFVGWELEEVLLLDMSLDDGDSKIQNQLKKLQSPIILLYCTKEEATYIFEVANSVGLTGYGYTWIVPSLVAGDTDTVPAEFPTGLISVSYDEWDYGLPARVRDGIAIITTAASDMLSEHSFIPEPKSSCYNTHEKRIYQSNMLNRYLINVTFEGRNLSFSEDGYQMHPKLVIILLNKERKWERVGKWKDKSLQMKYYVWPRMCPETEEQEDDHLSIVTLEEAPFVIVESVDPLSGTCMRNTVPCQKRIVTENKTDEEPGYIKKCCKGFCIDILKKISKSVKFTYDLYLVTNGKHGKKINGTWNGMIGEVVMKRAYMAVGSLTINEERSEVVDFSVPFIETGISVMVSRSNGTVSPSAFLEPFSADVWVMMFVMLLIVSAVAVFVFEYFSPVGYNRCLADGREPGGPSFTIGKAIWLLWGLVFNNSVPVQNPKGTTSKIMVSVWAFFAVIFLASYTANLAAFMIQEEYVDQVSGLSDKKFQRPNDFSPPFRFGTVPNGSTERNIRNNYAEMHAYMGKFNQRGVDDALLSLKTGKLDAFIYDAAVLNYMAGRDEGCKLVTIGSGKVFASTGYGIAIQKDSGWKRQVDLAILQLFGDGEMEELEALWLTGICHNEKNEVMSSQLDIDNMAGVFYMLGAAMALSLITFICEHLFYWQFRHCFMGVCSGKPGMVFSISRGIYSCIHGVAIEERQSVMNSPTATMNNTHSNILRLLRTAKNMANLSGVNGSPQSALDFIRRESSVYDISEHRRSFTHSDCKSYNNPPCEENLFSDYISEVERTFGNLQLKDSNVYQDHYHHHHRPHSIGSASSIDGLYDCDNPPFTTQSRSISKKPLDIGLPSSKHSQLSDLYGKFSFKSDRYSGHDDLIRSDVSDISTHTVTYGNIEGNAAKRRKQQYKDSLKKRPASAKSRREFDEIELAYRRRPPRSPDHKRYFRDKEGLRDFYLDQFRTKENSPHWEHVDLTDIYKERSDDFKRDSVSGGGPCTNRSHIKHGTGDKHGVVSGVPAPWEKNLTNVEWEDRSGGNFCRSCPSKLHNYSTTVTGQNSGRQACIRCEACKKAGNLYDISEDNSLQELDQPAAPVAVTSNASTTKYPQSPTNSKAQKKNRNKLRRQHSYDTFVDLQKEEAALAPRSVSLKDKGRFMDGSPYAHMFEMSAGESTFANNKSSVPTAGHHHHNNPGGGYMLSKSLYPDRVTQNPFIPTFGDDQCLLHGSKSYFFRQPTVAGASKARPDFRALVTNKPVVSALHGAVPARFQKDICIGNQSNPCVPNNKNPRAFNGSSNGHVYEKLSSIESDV

For `NC(=O)C(CO)N1CC2(CCCCC2)C1=O` (single isomer, unassigned) [AT, 3-hydroxy-2-(l-oxo-2-azaspiro[3.5]nonan-2-yl)propanamide], in data set [1], the “A: % maximal [3H]MK-801 binding relative to 1 mM glycine” value is recorded as “+ (<100%=+)” and the EC50 is less than 1 nM. Besides, in data set [2], the “A: % maximal [3H]MK-801 binding relative to 1 mM glycine” value is “+ (<100%=+)” and the EC50 was less than 1 nM. For the same compound, in data set [3], the AUC(0-t) is 2090 ng·h/mL, the half-life is 143 min, the C0 worked out at 2760 ng/mL and the Vd is 1.14 L/kg. This compound also returned a CI in data set [3] of 15.94 mL/min/kg. In data set [4], the exposure AUC(0-t) is 8340 ng·h/mL, the bioavailability is 80%, the time of peak concentration (Tmax) was found to be 15 min and the Cmax was determined as 6520 ng/mL. Besides, in data set [4], the “CSF Cmax” value stood at 1758 ng/mL and the “Brain Cmax” value was determined as 120 ng/mL. In data set [5] (0.1 mg/kg, 1 wk post-dose), the “% reduction in float time” value amounted to 55.6% and the Significance vs. vehicle entry is given as “Yes (statistically significant (p<=0.05) from vehicle at dose level shown)”. Further, in data set [5] (0.1 mg/kg, 1 h post-dose), the “% reduction in float time” value was determined as 63.4% and the Significance vs. vehicle entry is on record as “Yes (statistically significant (p<=0.05) from vehicle at dose level shown)”.
With `CNCCC(Oc1ccc(C(F)(F)F)cc1)c1ccccc1` (stereo not drawn) [Fluoxetine, reference compound], in data set [5] (setting [7]), the “% reduction in float time” value was 54% and the Significance vs. vehicle result was “Yes (statistically significant (p<=0.05) from vehicle at dose level shown)”.
As to `CC1CCC2(CC1)CN([C@H](C(N)=O)[C@@H](C)O)C2=O` (mixture of isomers) [Compound AN, (2S,3R)-3-hydroxy-2-(7-methyl-1-oxo-2-azaspiro[3.5]nonan-2-yl)butanamide], in data set [1], the EC50 is less than 1 nM and the Emax was less than 100%. In addition, the Emax in data set [2] came to 0%. In addition, in data set [3], the exposure AUC(0-t) was found to be 1470 ng·h/mL, the half-life is 19.2 min, the C0 is 3100 ng/mL and the Vd turned out to be 0.59 L/kg. The compound further displayed a CI in data set [3] of 22.44 mL/min/kg. Further, in data set [4], the exposure AUC(0-t) stood at 4850 ng·h/mL, the bioavailability came out at 66%, the Tmax amounted to 15 min and the peak concentration (Cmax) worked out at 4330 ng/mL. In addition, in data set [4], the “CSF Cmax” value amounted to 1384.82 ng/mL and the “Brain Cmax” value is given as 1501.76 ng/mL.
Consider `CC1CCC2(CC1)CN(CC(N)=O)C2=O` (stereo not drawn) [Compound BC, 2-(7-methyl-1-oxo-2-azaspiro[3.5]nonan-2-yl)acetamide], for which, in data set [1], the EC50 is less than 1 nM and the Emax was less than 100%. Besides, the Emax in data set [2] amounted to 0%. In data set [3], the AUC(0-t) was determined as 233 ng·h/mL, the half-life is 13.2 min, the C0 was 658 ng/mL and the Vd amounted to 2.67 L/kg. For the same compound, the CI in data set [3] amounted to 145.13 mL/min/kg. Further, in data set [4], the exposure AUC(0-t) was determined as 612 ng·h/mL, the bioavailability worked out at 52%, the time to peak (Tmax) amounted to 15 min and the Cmax worked out at 869 ng/mL. For the same compound, in data set [4], the “CSF Cmax” value worked out at 1362 ng/mL and the “Brain Cmax” value is 2321 ng/mL.
As for `NC(=O)C(CO)N1CC2(CCCCC2)C1=O` (single isomer, unassigned) [AS, 3-hydroxy-2-(l-oxo-2-azaspiro[3.5]nonan-2-yl)propanamide], in data set [1], the EC50 was less than 1 nM and the Emax is less than 100%. In data set [2], the concentration for a half-maximal effect (EC50) is less than 1 nM and the Emax is less than 100%. In data set [5] (0.1 mg/kg, 1 wk post-dose), the “% reduction in float time” value is on record as 32.0% and the Significance vs. vehicle entry is “No”. Besides, in data set [5] (0.1 mg/kg, 1 h post-dose), the “% reduction in float time” value is reported as 82.3% and the Significance vs. vehicle result was “Yes (statistically significant (p<=0.05) from vehicle at dose level shown)”.
As to `NCC1(CC(=O)O)CCCCC1` [Gabapentin, reference compound], the “% analgesia” value in data set [6] (1 wk post-dosing) is 0%; in data set [6] (1 h post-dosing) it was 72%; in data set [6] (1 h post-dosing, listed as gabapentin) it was “at least 50%”.

For the origin of these results see patent US10961189B2, “Spiro-lactam NMDA receptor modulators and uses thereof” (Aptinyx Inc., priority 2016, dated 2021).
